Test results published in patent US20060069132A1, “Azolecarboxamide herbicides” (priority 2004, published 2006).

Key:
[1] = system: eastern black nightshade; test: Test C pre-/postemergence herbicide test; assay type: in vivo, Solanum ptycanthum; settings: for Nightshade plant response rating: Preemergence, 500 g ai/ha, scale 0 to 100, 0 no effect, 100 complete control
Method in brief: (§1)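 Visual ratings on a 0–100 scale (100 = complete control) made versus untreated controls after 12 to 14 greenhouse days. Test chemicals, formulated in surfactant-containing non-phytotoxic solvent, applied preemergence to planted seeds or postemergence to 1- to 4-leaf plants (2 to 18 cm).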

[2] = system: large crabgrass; test: Test A pre-/postemergence herbicide test; assay type: in vivo, Digitaria sanguinalis
Method in brief: (§2)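 Visual injury scores on a 0–100 scale (100 = complete control) taken about ten days post-treatment in greenhouse against untreated controls; dash means no result. Treatments: preemergence soil spray and postemergence spray to runoff on one- to two-leaf plants 2 to 10 cm tall, surfactant-containing formulation.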

[3] = system: Surinam grass; test: Test C pre-/postemergence herbicide test; assay type: in vivo, Urochloa decumbens; settings: for Surinam Grass plant response rating: 500 g ai/ha
Method in brief: as §1

[4] = system: goosegrass; test: Test C pre-/postemergence herbicide test; assay type: in vivo, Eleusine indica; settings: for Goosegrass plant response rating: 500 g ai/ha
Method in brief: as §1

[5] = system: woolly cupgrass; test: Test C pre-/postemergence herbicide test; assay type: in vivo, Eriochloa villosa; settings: for Cupgrass, Woolly plant response rating: 500 g ai/ha
Method in brief: as §1

[6] = system: soybean; test: Test C pre-/postemergence herbicide test; assay type: in vivo, Glycine max; settings: for Soybean plant response rating: 500 g ai/ha
Method in brief: as §1

[7] = system: common (oilseed) sunflower; test: Test C pre-/postemergence herbicide test; assay type: in vivo, Helianthus annuus; settings: for Sunflower plant response rating: Preemergence, 500 g ai/ha, scale 0 to 100, 0 no effect, 100 complete control
Method in brief: as §1

[8] = system: johnsongrass; test: Test C pre-/postemergence herbicide test; assay type: in vivo, Sorghum halepense; settings: for Johnsongrass plant response rating: 500 g ai/ha
Method in brief: as §1

[9] = system: rice; test: Test B pre-/postemergence herbicide test; assay type: in vivo, Oryza sativa; settings: preemergence
Method in brief: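 Pre: seeds sown, then sprayed. Post: 1–4-leaf plants (2–18 cm) sprayed at the same time. Paddy: flooded, treated at 2-leaf stage. Formulation: non-phytotoxic solvent with surfactant. Greenhouse 13–15 days; visual 0–100 score relative to controls.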

[10] = system: velvetleaf; test: Test A pre-/postemergence herbicide test; assay type: in vivo, Abutilon theophrasti
Method in brief: as §2

[11] = 125 g ai/ha, scale 0 (no effect) to 100 (complete control), visual, 12 to 14 days, preemergence
[12] = Postemergence, 500 g ai/ha, 0 to 100 scale, 0 no effect, 100 complete control
[13] = Postemergence, 2000 g ai/ha, 0 to 100 scale, 0 no effect, 100 complete control
[14] = Preemergence, 500 g ai/ha, visual rating, 0 to 100 scale (0 no effect, 100 complete control)
[15] = Postemergence, 250 g ai/ha, scale 0 to 100, 0 no effect, 100 complete control
[16] = Preemergence, scale 0 to 100, 0 no effect, 100 complete control
[17] = postemergence, 125 g ai/ha, scale 0 to 100
[18] = postemergence, 62 g ai/ha, scale 0 to 100
[19] = 500 g ai/ha, visual rating 0-100, 0 no effect, 100 complete control
[20] = Preemergence, 2000 g ai/ha, visual rating, 0 to 100 scale (0 no effect, 100 complete control)
[21] = 62 g ai/ha, preemergence, scale 0 to 100
[22] = 250 g ai/ha, scale 0-100, preemergence
[23] = preemergence, 500 g ai/ha, visual injury, 0 to 100 scale (0 no effect, 100 complete control)

Structure (SMILES): CCOC(=O)c1cc(NC(=O)c2cc(C(C)(C)C)nn2CC)ccc1OC [Compound 96]
- Plant response rating (0 = no effect, 100 = complete control), Nightshade ([1]; 62 g ai/ha, preemergence): 90
- Plant response rating, Nightshade [1, 11]: 95
- Nightshade plant response rating [1]: 100
- Crabgrass, Large plant response rating [2, 12]: 30
- Plant response rating, Crabgrass, Large [2, 13]: 70
- Crabgrass, Large plant response rating [2, 14]: 80
- Crabgrass, Large plant response rating ([2]; Preemergence, 2000 g ai/ha, 0 to 100 scale, 0 no effect, 100 complete control): 100
- Plant response rating (0 = no effect, 100 = complete control), Surinam Grass ([3]; 62 g ai/ha, preemergence): 0
- Plant response rating, Surinam Grass [3, 11]: 10
- Surinam Grass plant response rating ([3]; Postemergence, scale 0 to 100): 60
- Plant response rating, Surinam Grass [3, 15]: 40
- Surinam Grass plant response rating [3, 16]: 65
- Plant response rating, Surinam Grass [3, 17]: 40
- Plant response rating, Surinam Grass [3, 18]: 0
- Plant response rating (0 = no effect, 100 = complete control), Goosegrass ([4]; 62 g ai/ha, preemergence): 30
- Plant response rating, Goosegrass [4, 11]: 80
- Goosegrass plant response rating ([4]; Postemergence, scale 0 to 100): 5
- Plant response rating, Goosegrass [4, 15]: 5
- Goosegrass plant response rating [4, 16]: 95
- Plant response rating, Goosegrass [4, 17]: 5
- Plant response rating, Goosegrass [4, 18]: 5
- Plant response rating (0 = no effect, 100 = complete control), Cupgrass, Woolly ([5]; 62 g ai/ha, preemergence): 5
- Plant response rating, Cupgrass, Woolly [5, 11]: 10
- Plant response rating, Cupgrass, Woolly ([5]; 250 g ai/ha, scale 0 to 100 (0 no effect, 100 complete control), visual, 12 to 14 days, preemergence): 20
- Cupgrass, Woolly plant response rating ([5]; Postemergence, scale 0 to 100): 50
- Plant response rating, Cupgrass, Woolly [5, 15]: 30
- Cupgrass, Woolly plant response rating [5, 16]: 70
- Plant response rating, Cupgrass, Woolly [5, 17]: 30
- Plant response rating, Cupgrass, Woolly [5, 18]: 5
- Plant response rating (0 = no effect, 100 = complete control), Soybean ([6]; 62 g ai/ha, preemergence): 0
- Plant response rating, Soybean [6, 11]: 5
- Soybean plant response rating ([6]; Postemergence, scale 0 to 100): 100
- Plant response rating, Soybean [6, 15]: 100
- Soybean plant response rating [6, 16]: 50
- Plant response rating, Soybean [6, 17]: 100
- Plant response rating, Soybean [6, 18]: 100
- Plant response rating (0 = no effect, 100 = complete control), Sunflower ([7]; 62 g ai/ha, preemergence): 0
- Plant response rating, Sunflower [7, 11]: 0
- Sunflower plant response rating [7]: 35
- Plant response rating (0 = no effect, 100 = complete control), Johnsongrass ([8]; 62 g ai/ha, preemergence): 40
- Plant response rating, Johnsongrass [8, 11]: 60
- Johnsongrass plant response rating ([8]; Postemergence, scale 0 to 100): 50
- Plant response rating, Johnsongrass [8, 15]: 50
- Johnsongrass plant response rating [8, 16]: 95
- Plant response rating, Johnsongrass [8, 17]: 50
- Plant response rating, Johnsongrass [8, 18]: 0
- Plant response rating, Rice [9, 19]: 70
- Plant response rating, Rice ([9]; 125 g ai/ha, 0 to 100 scale, 0 is no effect, 100 is complete control): 60
- Velvetleaf plant response rating [10, 12]: 70
- Plant response rating, Velvetleaf [10, 13]: 70
- Velvetleaf plant response rating [10, 14]: 95
- Velvetleaf plant response rating [10, 20]: 100

Structure (SMILES): CC(=NO)c1cccc(NC(=O)c2sc(C(C)(C)C)nc2C)c1 [Compound 195]
- Plant response rating, Nightshade [1, 21]: 0
- Plant response rating, Nightshade [1, 11]: 0
- Plant response rating, Nightshade [1, 22]: 0
- Nightshade plant response rating [1]: 0
- Crabgrass, Large plant response rating [2, 12]: 10
- Plant response rating, Crabgrass, Large [2, 13]: 25
- Crabgrass, Large plant response rating [2, 20]: 95
- Crabgrass, Large plant response rating [2, 23]: 75
- Plant response rating, Surinam Grass [3, 21]: 0
- Plant response rating, Surinam Grass [3, 11]: 0
- Plant response rating, Surinam Grass [3, 22]: 85
- Surinam Grass plant response rating [3, 16]: 85
- Plant response rating, Goosegrass [4, 21]: 100
- Plant response rating, Goosegrass [4, 11]: 100
- Plant response rating, Goosegrass [4, 22]: 100
- Goosegrass plant response rating [4, 16]: 100
- Plant response rating, Cupgrass, Woolly [5, 21]: 0
- Plant response rating, Cupgrass, Woolly [5, 11]: 0
- Plant response rating, Cupgrass, Woolly [5, 22]: 10
- Cupgrass, Woolly plant response rating [5, 16]: 10
- Plant response rating, Soybean [6, 21]: 0
- Plant response rating, Soybean [6, 11]: 0
- Plant response rating, Soybean [6, 22]: 0
- Soybean plant response rating [6, 16]: 0
- Plant response rating, Sunflower [7, 21]: 0
- Plant response rating, Sunflower [7, 11]: 0
- Plant response rating, Sunflower [7, 22]: 0
- Sunflower plant response rating [7]: 10
- Plant response rating, Johnsongrass [8, 21]: 0
- Plant response rating, Johnsongrass [8, 11]: 0
- Plant response rating, Johnsongrass [8, 22]: 0
- Johnsongrass plant response rating [8, 16]: 0
- Rice plant response rating (0 to 100 scale) ([9]; 125 g ai/ha, 0 = no effect, 100 = complete control): 10
- Plant response rating, Rice [9, 19]: 20
- Velvetleaf plant response rating [10, 12]: 0
- Plant response rating, Velvetleaf [10, 13]: 15
- Velvetleaf plant response rating [10, 20]: 15
- Velvetleaf plant response rating [10, 23]: 0
